Test systems include DLD-1 colon; DMS 114 small cell lung; DMS 273 small cell lung; HOP-18 NSCLC; HOP-62 NSCLC; KM20L2 colon; M19-MEL melanoma; P388 leukemia; RPMI-8226 leukemia; SN12C renal; SNB-78 CNS; UACC-62 melanoma; XF 498 CNS; 786-0 renal; LXFL 529 NSCLC; RXF-631 renal.
What all share (assay): NCI tumour cell line growth inhibition, 48 h

“And” between values parts separate entries of the source, which are not always exact repeats. Equal entries are not always repeated.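 Step 1: Grow cells in 96-well plates. Step 2: Expose to compound for 48 hours at 5 concentrations. Step 3: Interpolate endpoints linearly; if unreached, use highest concentration. GI50 = concentration required for 50% inhibition of growth. TGI: total growth inhibition.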 Bounds are passed on as bounds.

`O=c1oc2cc(O)ccc2c2oc3cc(O)ccc3c12`: the TGI with DLD-1 colon is > 125 µM; in the test on DMS 114 small cell lung, > 12.5 µM; in the test with DMS 273 small cell lung, > 121 µM; in the test on HOP-18 NSCLC, > 125 µM; with HOP-62 NSCLC, 54.1 µM; in the test on KM20L2 colon, 123 µM. The TGI in the test on M19-MEL melanoma was > 125 µM; in the test with P388 leukemia, > 125 µM; in the test with RPMI-8226 leukemia, > 125 µM; with SN12C renal, > 88.7 µM; with SNB-78 CNS, > 86.3 µM; with UACC-62 melanoma, > 125 µM. Further, the TGI in the test with XF 498 CNS is > 19.8 µM.

`CC(=O)OCC1=CC2OC(=O)C3=COC(OC4OC(CO)C(O)C(O)C4O)C1C32` (stereo not drawn): the TGI with 786-0 renal, in the test with HOP-62 NSCLC, in the test with RPMI-8226 leukemia, in the test with SN12C renal and in the test on UACC-62 melanoma was > 100 µM each time.

Take `C1=CC=C2NCCc3cccc(c3)CCNC3=CC=CC=CC3=NCCCCCCN=C2C=C1`: the TGI with DLD-1 colon was > 100 µM; in the test with DMS 114 small cell lung, 26.1 µM; in the test with DMS 273 small cell lung it was 21.9 µM; in the test on HOP-62 NSCLC it was 34.4 µM; in the test on KM20L2 colon, 24.8 µM; in the test on LXFL 529 NSCLC it was 23.6 µM. Besides, the TGI is 30.3 µM in the test with M19-MEL melanoma; 31.1 µM in the test on RPMI-8226 leukemia; 28 µM with RXF-631 renal; > 100 µM with SN12C renal; > 100 µM with SNB-78 CNS; 50.7 µM in the test with UACC-62 melanoma.

`COc1nc2ccc(CNc3ccc(C(=O)NC(CCC(=O)O)C(=O)O)cc3)cc2nc1OC` (stereo not drawn): the TGI in the test on HOP-62 NSCLC, in the test on RPMI-8226 leukemia, in the test on SN12C renal and in the test on UACC-62 melanoma was > 100 µM each time.

As for `CC(=O)OC12CC[N+]3(C)CCCCC3C1=Nc1ccccc12` (stereo not drawn), the TGI in the test on 786-0 renal, in the test on HOP-62 NSCLC, in the test with RPMI-8226 leukemia, with SN12C renal and with UACC-62 melanoma was > 100 µM in each case.

`N#Cc1ccc([N+](=O)[O-])cc1NC(N)=S`: the TGI in the test on DMS 273 small cell lung is > 100 µM; in the test on HOP-18 NSCLC it was > 100 µM; in the test on HOP-62 NSCLC it was > 100 µM; with KM20L2 colon, > 100 µM; in the test with LXFL 529 NSCLC, 32.6 µM; in the test with M19-MEL melanoma, > 100 µM. The TGI in the test with RPMI-8226 leukemia, in the test with RXF-631 renal, in the test with SN12C renal, with SNB-78 CNS and in the test with XF 498 CNS was > 100 µM in each case.

Regarding `COc1cc2c3c(n(CCCn4cncn4)c(=O)c2cc1OC)-c1cc2c(cc1C3=O)OCO2`, the TGI in the test with 786-0 renal is > 49.3 µM; in the test on HOP-62 NSCLC, 59 µM; in the test on RPMI-8226 leukemia, 12.3 µM; in the test on SN12C renal it was > 100 µM. Further, the figures for the GI50 in the test with HOP-62 NSCLC, in the test with RPMI-8226 leukemia and in the test with UACC-62 melanoma were < 0.0283 µM, < 0.0194 µM and < 0.01 µM, respectively.

Consider `CCCCC(=O)c1c(O)ccc2c(C)cc(=O)oc12`, for which the TGI in the test on 786-0 renal, in the test with HOP-62 NSCLC, in the test with RPMI-8226 leukemia, in the test on SN12C renal and in the test on UACC-62 melanoma was > 100 µM each time.

Consider `CCOc1ccccc1Nc1ccc(N)cc1S(=O)(=O)O`, for which the TGI in the test on 786-0 renal, in the test with HOP-62 NSCLC, in the test with SN12C renal and with UACC-62 melanoma was > 100 µM throughout.

Take `COc1ccc(C(=O)CCN(C)C)c2ccccc12`: the TGI in the test on 786-0 renal was 27.4 µM; in the test with HOP-62 NSCLC, > 78.3 µM; in the test on RPMI-8226 leukemia, 4.44 µM; in the test with SN12C renal it was 49.1 µM; in the test on UACC-62 melanoma it was > 58.1 µM.

`CC1(O)C2(c3ccccc3)CCC[N+]1(C)CC2` (stereo not drawn): the TGI in the test on HOP-62 NSCLC, in the test on RPMI-8226 leukemia, in the test with SN12C renal and in the test on UACC-62 melanoma was > 100 µM each time.

Regarding `CC[C@@]1(O)C[C@H](OC2CC(N(C)C)C(OC3CC(O)C(OC4CCC(=O)C(C)O4)C(C)O3)C(C)O2)c2c(cc3c(c2O)C(=O)c2c(O)cccc2C3=O)C1C(=O)OC` (stereo partly drawn), the TGI in the test on DLD-1 colon is 5.46 µM; in the test with DMS 114 small cell lung it was 0.474 µM; with HOP-18 NSCLC it was 1.85 µM; with HOP-62 NSCLC it was 1.58 µM; with KM20L2 colon, 4.64 µM; in the test with LXFL 529 NSCLC, 1.68 µM. Further, the TGI with M19-MEL melanoma is 0.799 µM; with UACC-62 melanoma it was 0.26 µM and 0.527 µM; in the test on XF 498 CNS, 0.294 µM. Moreover, the GI50 in the test on XF 498 CNS was 0.0025 µM.

With `Nc1nc(SCCNC(=O)CCc2ccc(O)c(I)c2)nc2c1ncn2C1OC(CO)C(O)C1O` (stereo not drawn), the TGI with DLD-1 colon, with DMS 114 small cell lung, with DMS 273 small cell lung, in the test with HOP-62 NSCLC, in the test on KM20L2 colon and in the test on LXFL 529 NSCLC was > 100 µM each time. For the same compound, the TGI in the test on M19-MEL melanoma, in the test on SN12C renal, in the test with SNB-78 CNS, in the test on UACC-62 melanoma and with XF 498 CNS was > 100 µM each time.

With `[C-]#[N+]C(=C\c1ccc(O)cc1)/C(=C/c1ccc(O)cc1)[N+]#[C-]`, the TGI in the test on 786-0 renal is > 100 µM; in the test on HOP-62 NSCLC, > 100 µM; with RPMI-8226 leukemia it was > 95.2 µM; in the test with SN12C renal, 6.37 µM; in the test with UACC-62 melanoma, 3.7 µM.

For the compound `O=C1CCCCN1`, the TGI with DLD-1 colon, in the test on DMS 114 small cell lung, with DMS 273 small cell lung, with HOP-18 NSCLC, in the test with HOP-62 NSCLC and with KM20L2 colon was > 1120 µM in each case. Moreover, the TGI with M19-MEL melanoma is > 1120 µM; in the test on P388 leukemia, > 707 µM; in the test on RPMI-8226 leukemia, > 1120 µM; in the test with SN12C renal, > 1120 µM; in the test on SNB-78 CNS, > 1120 µM; in the test with UACC-62 melanoma it was > 1120 µM. The TGI with XF 498 CNS is > 112 µM.

On to `C=CCn1c(=O)c(Br)nn(CCOCP(=O)(OCC)OCC)c1=O`, for which the TGI with HOP-62 NSCLC, with RPMI-8226 leukemia and with SN12C renal was > 100 µM each time.

`CC(C)CNCCc1ccccn1`: the TGI with 786-0 renal, with HOP-62 NSCLC, with SN12C renal and in the test with UACC-62 melanoma was > 100 µM in each case.

For the compound `O=Cc1ccccc1CCn1c(=O)c2cc3c(=O)n(CCc4ccccc4C=O)c(=O)c3cc2c1=O`, the TGI in the test with DLD-1 colon, in the test on DMS 114 small cell lung, in the test on DMS 273 small cell lung, in the test on LXFL 529 NSCLC, in the test with SN12C renal and with SNB-78 CNS was > 100 µM throughout. For the same compound, the TGI in the test with UACC-62 melanoma is > 100 µM.

For the compound `CC(C)C1=CC2=CC[C@@H]3[C@](C)(CCC[C@@]3(C)C(=O)O)[C@H]2CC1`, the TGI in the test with DLD-1 colon, with DMS 114 small cell lung, in the test with DMS 273 small cell lung, in the test with HOP-18 NSCLC, in the test on HOP-62 NSCLC and in the test on KM20L2 colon was > 100 µM each time. For the same compound, the TGI with LXFL 529 NSCLC is > 100 µM; in the test on M19-MEL melanoma it was > 100 µM; in the test with RPMI-8226 leukemia, > 79.7 µM; in the test on RXF-631 renal, > 100 µM; in the test with SN12C renal, > 100 µM; in the test with SNB-78 CNS, > 96.2 µM. Further, the values for the TGI with UACC-62 melanoma and with XF 498 CNS were 68.3 µM and > 100 µM, respectively.

As for `CN1c2c(nc(N)[nH]c2=O)NCC1CCNc1ccc(C(=O)NC(CCC(=O)O)C(=O)O)cc1` (stereo not drawn), the TGI came to 1840 µM with 786-0 renal; 2350 µM in the test on DLD-1 colon; 1770 µM with DMS 114 small cell lung; 1560 µM in the test with DMS 273 small cell lung; 2950 µM in the test on HOP-18 NSCLC; 1930 µM with HOP-62 NSCLC. In addition, the TGI was found to be 2280 µM in the test with KM20L2 colon; 778 µM in the test with M19-MEL melanoma; 651 µM in the test with P388 leukemia; 2930 µM with RPMI-8226 leukemia; 2350 µM with SN12C renal; 2660 µM with SNB-78 CNS. For the same compound, the TGI in the test on UACC-62 melanoma was 1650 µM; in the test on XF 498 CNS it was 2150 µM.

For the compound `CC1=C(SCCO)C(=O)c2ccccc2C1=O`, the TGI was 29.4 µM in the test on HOP-62 NSCLC, 29.7 µM in the test on SN12C renal and 31.7 µM in the test with UACC-62 melanoma.

In the case of `c1ccc(SCCc2ccncc2)cc1`, the TGI in the test with 786-0 renal, in the test with HOP-62 NSCLC, with RPMI-8226 leukemia, in the test on SN12C renal and in the test on UACC-62 melanoma was > 100 µM each time.

As to `CC(=O)OCCCCN1C(=O)CSc2ccccc21`, the TGI in the test with HOP-62 NSCLC, in the test on RPMI-8226 leukemia, in the test with SN12C renal and with UACC-62 melanoma was > 100 µM each time.

The values above are taken from PubChem BioAssay (NCI).
